From patent US20050282840A1, “Methods of modulating neurotrophin-mediated activity” (PainCeptor Pharma Corporation, priority 2004, published 2005)
Where two headings read alike, the source gives them in different places.

How the values were obtained:
[1] = target: T1, p75^NTR receptors (PC12 cells) (Rattus norvegicus, UniProt P07174); experiment: Basic screening assay: binding of 125I-BDNF to PC12 cells; conditions: for 125I-BDNF Binding (% binding): Example 3 table; for activity at 50 µM: read-out: BDNF Activity % Maximal Binding
T1 construct: endogenous in cells; host or cells: PC12 cells
T1 sequence (P07174 30-425): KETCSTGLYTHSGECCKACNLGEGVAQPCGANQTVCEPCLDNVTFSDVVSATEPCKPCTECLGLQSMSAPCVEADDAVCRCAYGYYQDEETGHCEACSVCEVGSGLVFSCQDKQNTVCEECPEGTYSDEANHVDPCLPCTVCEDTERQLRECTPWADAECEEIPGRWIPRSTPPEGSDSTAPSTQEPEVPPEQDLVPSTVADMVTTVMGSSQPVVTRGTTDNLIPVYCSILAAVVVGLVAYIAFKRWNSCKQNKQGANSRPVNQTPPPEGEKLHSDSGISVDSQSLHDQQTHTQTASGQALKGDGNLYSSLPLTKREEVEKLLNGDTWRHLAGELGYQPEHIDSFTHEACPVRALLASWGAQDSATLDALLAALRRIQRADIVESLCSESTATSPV
T1 sequence (P23560 129-247 partner): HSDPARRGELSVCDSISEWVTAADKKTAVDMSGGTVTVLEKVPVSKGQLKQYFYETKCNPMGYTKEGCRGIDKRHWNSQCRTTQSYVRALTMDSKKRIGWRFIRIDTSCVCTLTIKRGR
Procedure, shortened: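 4×10^6 PC12 cells incubated 2 h at 4° C, rotating, with 0.5 nM ^125I-BDNF (final) and compound at 50 μM, in duplicate or more. Bound ligand separated through 10% glycerol by centrifugation and counted by gamma counter; specific binding is Bmax minus NSB; inhibitors followed up for EC50.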

[2] = system: p75; experiment: Neurotrophin-receptor crosslinking assay, 125I-NGF (Example 3); format: binding; conditions: for 125I-NGF X-linking Sample (% binding): crosslinked sample counted on gamma counter; for 125I-NGF X-linking p75 band (% binding): p75 band counted on gamma counter
Experimental: (§1) PC12 cells or TrkB-expressing PC12^nnr5 cells were recovered using Gey's solution, pelleted by centrifugation, and suspended in HKR (HEPES-Krebs Ringer Solution; [10 mM HEPES, 125 mM NaCl, 4.8 mM KCl, 1.3 mM CaCl2.2H2O, 1.2 mM MgSO4, 1.2 mM KH2PO4, 1 mg/mL BSA, 1 mg/mL glucose, pH 7.35]). In a total volume of 1 mL, 1×10^6 cells were incubated, rotating, with 0.1 nM ^125I-BDNF or ^125I-NGF and additions (Compound A or Compound B at the indicated final concentrations) for 2 h at 4° C. At the conclusion of the binding reaction, a 20 μL volume of BS^3 was added to a final concentration of 0.4 mM and incubated, rocking, for an additional 30 min at room temperature. Cells were washed twice in TBS. For analysis of ^125I-NGF crosslinking to TrkA, ^125I-NGF crosslinking to p75^NTR, and ^125I-BDNF crosslinking to p75^NTR, samples were solubilized directly in SDS sample buffer and heated for 10 min at 95° C. For analysis of ^125I-BDNF crosslinking to TrkB, samples were immunoprecipitated with a pan-Trk antibody. All samples were electrophoresed on a 6% SDS-polyacrylamide gel, dried, and autoradiographed. Dried gels were registered to the autoradiograph and each labeled protein band was quantified by direct gamma counting. Non-linear regression analysis was performed by Prism 3.0 to generate concentration-effect curves and determine IC50 values.
(§2) The neurotrophin-receptor crosslinking assay described in Example 1 was used to determine binding of compounds 65, 3, 43 and 97 to ^125I-NGF and ^125I-BDNF.
(§3) ^1The p75 band was excised from the gel and cpm were determined on a gamma counter. Values were calculated as follows: [formula]
(§4) ^2An aliquot of the total crosslinked sample in SDS-sample buffer was counted on a gamma counter. Values were calculated as follows: [formula]

[3] = system: p75^NTR receptors (PC12 cells); experiment: Basic screening assay: binding of 125I-NGF to PC12 cells; conditions: for 125I-NGF Binding (% binding): Example 3 table; for NGF Activity % Maximal Binding: test compound 50 μM, 0.5 nM 125I-NGF, PC12 cells, 2 h at 4° C., specific binding as percent of control
Procedure, shortened: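 PC12 cells (4×10^6) incubated 2 h at 4° C with 0.5 nM 125I-NGF and test compound at 50 μM, rotating. Bound tracer pelleted through 10% glycerol and gamma-counted; specific binding expressed as percent of control after NSB subtraction.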

[4] = system: p75; experiment: Neurotrophin-receptor crosslinking assay, 125I-BDNF (Example 3); format: binding; conditions: for 125I-BDNF X-linking Sample (% binding): crosslinked sample counted on gamma counter; for 125I-BDNF X-linking p75 band (% binding): p75 band counted on gamma counter
Experimental: as §1, §2, §3, §4

[5] = target: T2, p75^NTR (Rattus norvegicus, UniProt P07174); experiment: 125I-BDNF crosslinking to p75^NTR receptors on nnr5 cells; format: binding; conditions: 0.1 nM 125I-BDNF, 2 h at 4° C., read-out: IC50 (mean±S.E.M), inhibition of 125I-BDNF crosslinking to p75^NTR
T2 construct: ^125I-BDNF crosslinking to p75^NTR receptors on nnr5 cells expressing p75^NTR; endogenous in cells; host or cells: PC12^nnr5 cells (TrkB-transfected)
T2 sequence (P07174 30-425): T1 sequence (P07174 30-425)
T2 sequence (P23560 129-247 partner): T1 sequence (P23560 129-247 partner)
Experimental: Cells were incubated at 37° C. in 5% CO2. PC12 and PC12^nnr5 cells were maintained in RPMI-1640 medium supplemented with 10% fetal calf serum (FCS); cells were harvested by replacing the medium with calcium-magnesium-free balanced salt (Gey's) solution and incubating at 37° C. for 15 min. NIH-3T3 cells were grown in Dulbecco's modified Eagle medium: F12 containing 5% FCS; cells were harvested by replacing the medium with a 0.25% trypsin-0.53 mM ethylenediaminetetraacetic acid (EDTA) solution and incubating at 37° C. for 5 min.
The full-length TrkB cDNA was cloned into the CMV plasmid vector. Transient expression of TrkB in PC12^nnr5 cells was achieved by transfecting the cells with the TrkB expression vector using Lipofectamine Plus reagents (Invitrogen Canada Inc; Burlington, ON). PC12^nnr5 cells were passed through a syringe fitted with a 21-gauge needle several times to prevent clumping. In a 100 mm dish, 10×10^6 cells were plated and used for transfection the next day. […]
PC12 cells or TrkB-expressing PC12^nnr5 cells were recovered using Gey's solution, pelleted by centrifugation, and suspended in HKR (HEPES-Krebs Ringer Solution; [10 mM HEPES, 125 mM NaCl, 4.8 mM KCl, 1.3 mM CaCl2.2H2O, 1.2 mM MgSO4, 1.2 mM KH2PO4, 1 mg/mL BSA, 1 mg/mL glucose, pH 7.35]). […] Dried gels were registered to the autoradiograph and each labeled protein band was quantified by direct gamma counting. […]

O=C1NC(=S)NC(=O)C1=Cc1ccc(-c2ccc(C(=O)O)c(Cl)c2)o1 [Compound 65, 2-Chloro-4-[5-(4,6-dioxo-2-thioxo-tetrahydro-pyrimidin-5-ylidenemethyl)furan-2-yl]benzoic acid]
125I-BDNF Binding (% binding) [1]: XXXXX (0 < XXXXX < 10)
activity at 50 µM [1]: 0 to 10%
125I-NGF X-linking Sample (% binding) [2]: * (50 < *)
125I-NGF X-linking p75 band (% binding) [2]: * (50 < *)
125I-NGF Binding (% binding) [3]: XXX (20 < XXX < 30)
NGF Activity % Maximal Binding ([3]; Table 2): XXX (20 < XXX < 30)
125I-BDNF X-linking Sample (% binding) [4]: XXXXX (0 < XXXXX < 10)
125I-BDNF X-linking p75 band (% binding) [4]: XXXXX (0 < XXXXX < 10)

NS(=O)(=O)c1ccc(-c2ccc(/C=C3/SC(=S)N(CCC(=O)O)C3=O)o2)cc1 [Compound B]
IC50 [5]: 10.56 ± 0.05 µM

COc1ccc(-c2ccc(C=C3C(=O)N(c4ccc(C(=O)O)cc4)N=C3C)o2)c([N+](=O)[O-])c1 (racemic) [Compound A, 4-{4-[5-(4-Methoxy-2-nitro-phenyl)-furan-2-ylmethylene]-3-methyl-5-oxo-4,5-dihydro-pyrazol-1-yl}-benzoic acid]
IC50 [5]: 15.64 ± 0.05 µM

Cc1cc(-c2ccc(C=C3C(=O)NC(=S)NC3=O)o2)c(C)c([N+](=O)[O-])c1 [Compound 3, 5-[5-(2,5-Dimethyl-3-nitrophenyl)furan-2-ylmethylene]-2-thioxo-dihydro-pyrimidine-4,6-dione]
125I-BDNF Binding (% binding) [1]: XXXXX (0 < XXXXX < 10)
activity at 50 µM [1]: 0 to 10%
125I-NGF X-linking Sample (% binding) [2]: * (50 < *)
125I-NGF X-linking p75 band (% binding) [2]: * (50 < *)
125I-NGF Binding (% binding) [3]: * (50 < *)
NGF Activity % Maximal Binding ([3]; Table 1): * (50 < *)
125I-BDNF X-linking Sample (% binding) [4]: XXXXX (0 < XXXXX < 10)
125I-BDNF X-linking p75 band (% binding) [4]: XXXXX (0 < XXXXX < 10)

O=C(O)c1cc(-c2ccc(/C=C3\NC(=O)N(c4cccc(Cl)c4)C3=O)o2)ccc1Cl [Compound 43, 2-Chloro-5-{5-[1-(3-chlorophenyl)-2,5-dioxo-imidazolidin-4-ylidenemethyl]furan-2-yl}benzoic acid]
125I-BDNF Binding (% binding) [1]: XXX (20 < XXX < 30)
activity at 50 µM ([1]; Table 1, test compound 50 μM, 0.5 nM 125I-BDNF, PC12 cells, 2 h at 4° C., specific binding as percent of control): 30 to 40%
125I-NGF X-linking Sample (% binding) [2]: * (50 < *)
125I-NGF X-linking p75 band (% binding) [2]: * (50 < *)
125I-NGF Binding (% binding) [3]: * (50 < *)
NGF Activity % Maximal Binding ([3]; Table 1): * (50 < *)
125I-BDNF X-linking Sample (% binding) [4]: XXX (20 < XXX < 30)
125I-BDNF X-linking p75 band (% binding) [4]: XXXXX (0 < XXXXX < 10)

O=C1NC(=O)/C(=C\c2ccc(-c3ccc(Cl)c([N+](=O)[O-])c3)o2)S1 [Compound 97, 5-[5-(4-Chloro-3-nitrophenyl)furan-2-ylmethylene]-thiazolidine-2,4-dione]
125I-BDNF Binding (% binding) [1]: * (50 < *)
activity at 50 µM ([1]; Table 4, test compound 50 μM, 0.5 nM 125I-BDNF, PC12 cells, 2 h at 4° C., specific binding as percent of control): > 50%
125I-NGF X-linking Sample (% binding) [2]: * (50 < *)
125I-NGF X-linking p75 band (% binding) [2]: * (50 < *)
125I-NGF Binding (% binding) [3]: * (50 < *)
NGF Activity % Maximal Binding ([3]; Table 4): * (50 < *)
125I-BDNF X-linking Sample (% binding) [4]: * (50 < *)
125I-BDNF X-linking p75 band (% binding) [4]: XX (30 < XX < 40)
